Patent US11226337B2, “Chemoproteomic profiling of protein electrophilic and oxidative post-translational modifications” (Zenagem, LLC, priority 2017, dated 2022)

Experiments:
[1] = target: T1, SCRN2 Secernin-2 (Q96FV2) (Homo sapiens, UniProt Q96FV2); test: SILAC RP-ABPP; assay type: cell-based; conditions: SILAC H/L, HEK293T
T1 construct: shared by both the endogenous and recombinant forms of these proteins; endogenous in cells; host or cells: HEK293T and MDA-MB-231
Experimental: Modifications to this protocol included using isotopically ‘light’ and ‘heavy’ SILAC cells that were also grown to near complete confluence prior to treatment. Isotopically light cells were treated with the non-clickable hydrazine probe (at the same concentration as the probe in ‘enrichment’ experiments) or the probe in the presence of 10-fold excess non-clickable hydrazine probe as a competitor (in ‘competition’ experiments). Isotopically heavy cells were treated with the probe for both types of experiments. These treatments were performed in non-SILAC media. Following treatments, cells were washed with cold PBS to remove the probe-containing media, harvested by scraping, collected by centrifugation (1,400 g, 3 min, 4° C.), washed again by resuspension in cold PBS and frozen as pellets at −80° C. until use.
The fractionated equimolar mixture of heavy and light soluble proteomes (1-1.5 mg) was diluted to 1 mL in PBS. Click reactions were scaled accordingly (except for biotin-azide) to maintain final concentrations of 0.1 mM TBTA, 1 mM CuSO4, 100 μM biotin-azide (10 mM in DMSO) and 1 mM TCEP. The mixture was vortexed and placed on a rotator at ambient temperature for 1 hour. Sequential addition of and mixture with pre-chilled methanol (MeOH, 2 mL), chloroform (CHCl3, 0.5 mL) and PBS (1 mL) on ice quenched the reaction. The precipitated proteome was centrifuged (5,000 g, 10 min, 4° C.) to fractionate the protein interphase from the organic and aqueous solvent layers. The protein pellet was washed with cold 1:1 MeOH:CHCl3 (3×1 mL), mildly sonicated in cold 4:1 MeOH:CHCl3 (2.5 mL) and pelleted once more by centrifugation (5,000 g, 10 min, 4° C.) to ensure click reagents were efficiently removed.
Heavy and light parent ion chromatograms associated with successfully identified peptides were extracted and compared using CIMAGE software as previously described^69. At least one ion of a co-eluting heavy-light pair must be accurately identified from a fragmentation event that occurred within the retention time window (±10 min) of parent ion elution. To ensure that the correct pair of peaks is quantified, chromatograms are extracted within a 10 ppm error tolerance of the predicted m/z, the signal-to-noise ratio must be >2.5 and the ‘co-elution correlation score’ and ‘envelope correlation score’ must have R^2 values ≥0.8. In addition, peptides detected as ‘singletons,’ where only the heavy ion of a peptide pair was identified, but for which passed all other filtering parameters, are given a default assigned ratio of ‘20,’ which is defined as any measured ratio that is ≥20.
To further eliminate false positives and any stochastic variability in the data, protein ratios were then determined by the median peptide ratio derived from three or more unique quantified peptides. Protein ratios that complied with these criteria from a single experiment were then averaged with ratios acquired from ≥3 replicates to provide final values for each type of experiment in both cell lines with both probes. […] Probe targets in HEK293T and MDA-MB-231 cells represent data combined from ≥3 independent biological replicates with each cell type performed with several independent batches of synthesized probes over a period of almost two years.
(§1) Two types of experiments were performed—1) direct enrichment of probe 1-labelled proteins from heavy cells in comparison to light control cells treated with the non-clickable hydrazine (3) at the same concentration as 1 (3 mM for 0.5 h); and 2) competition experiments where both heavy and light cells were treated probe 1, but light cells were also treated with 10× competitor 3 (FIG. 3A)—in two different human cell lines (HEK293T cells and the human breast cancer cell line MDA-MB-231).

[2] = system: HEK293T cells; test: gel-based in situ probe labelling (rhodamine-azide, in-gel fluorescence); assay type: cell-based, human; conditions: soluble and membrane proteomes, 30 minutes
Experimental: For gel-based experiments, cells were plated and grown to near complete confluence at the time of treatment. Cells were washed with cold phosphate buffered saline (PBS, pH 7.4) and replenished with serum-free DMEM (˜15% of normal passage volume, e.g. a 10 cm plate normally passaged with 10 mL media received 1.5 mL) supplemented with 10 mM Na-HEPES buffer (pH 7.5). Unless otherwise indicated, cells were incubated with probes (3 mM and 1 mM for probes 1 and 2, respectively) in the absence or presence of 10-fold excess non-clickable competitor probes (30 mM and 10 mM for 3 and 4, respectively) for 0.5 hour at 37° C. When applicable, probe and competitor were premixed before co-administering to the cells.
The cells were lysed, and the cell proteomes were conjugated to a rhodamine-azide (Rh—N3) reporter tag.
Soluble proteomes from treated cells were diluted to 1 mg/mL. To each sample (50 μL), a freshly prepared “click” or CuAAC reagent mixture (6 μL) containing 0.1 mM tris(benzyltriazolylmethyl)amine (TBTA) (3 μL/sample, 1.7 mM in 4:1 DMSO:t-BuOH), 1 mM CuSO4 (1 μL/sample, 50 mM in H2O), 25 μM azide-rhodamine (1 μL/sample, 1.25 mM in DMSO), and freshly prepared 1 mM tris(2-carboxyethyl)phosphine (TCEP) (1 μL/sample, 50 mM in PBS or H2O) was added to conjugate the fluorophore to probe-labelled proteins. TBTA was purchased from TCI and azide-rhodamine was synthesized as previously described^64. Upon addition of the click mixture, each reaction was immediately mixed by vortexing and then allowed to react at ambient temperature for 1 hour before quenching the reactions with SDS loading buffer (4× stock, 17 μL). Proteins (˜25 μg total protein loaded per gel lane) were resolved by SDS-PAGE (10% acrylamide) and visualized by in-gel fluorescence scanning on a Hitachi FMBIO-II or BioRad ChemiDoc MP flatbed fluorescence scanner.

[3] = system: HEK293T and MDA-MB-231 cells; test: determination of high-reactivity protein targets (SILAC RP-ABPP); assay type: cell-based, human; conditions: enrichment ratio >5 and competition ratio >4
Experimental: To further eliminate false positives and any stochastic variability in the data, protein ratios were then determined by the median peptide ratio derived from three or more unique quantified peptides. Protein ratios that complied with these criteria from a single experiment were then averaged with ratios acquired from ≥3 replicates to provide final values for each type of experiment in both cell lines with both probes. […] Most importantly, there are no robustly measured ratios for proteins identified as probe 1 targets that had measured ratios of ˜1 with probe 2. […]
as §1, with “MDA-MB-231). […] The target list was further refined by requiring that each protein was detected with a minimum of three unique quantified peptides per experiment and by averaging protein ratios across three or more biological replicates per cell line.” for “MDA-MB-231).”

T1 sequence (Q96FV2 whole entry): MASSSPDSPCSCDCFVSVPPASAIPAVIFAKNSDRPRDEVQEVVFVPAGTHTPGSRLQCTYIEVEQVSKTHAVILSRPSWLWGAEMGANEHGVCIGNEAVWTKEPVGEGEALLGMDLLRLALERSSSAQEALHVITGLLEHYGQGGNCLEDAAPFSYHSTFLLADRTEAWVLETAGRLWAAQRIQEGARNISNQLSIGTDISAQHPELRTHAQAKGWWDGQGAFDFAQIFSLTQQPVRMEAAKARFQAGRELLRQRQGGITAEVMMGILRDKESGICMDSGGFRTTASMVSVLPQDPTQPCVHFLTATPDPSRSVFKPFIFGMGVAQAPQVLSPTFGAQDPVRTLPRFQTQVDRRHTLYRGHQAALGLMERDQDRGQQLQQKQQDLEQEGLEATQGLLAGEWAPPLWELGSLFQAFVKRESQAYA

Row | enrichment ratioavg ([1]; probe 2 1 mM 0.5 h vs probe 4) | competition ratioavg ([1]; probe 2 vs probe 2+10x probe 4) | SMILES | enrichment ratioavg ([1]; probe 1 3 mM 0.5 h vs probe 3) | competition ratioavg ([1]; probe 1 vs probe 1+10x probe 3) | protein labeling, in-gel fluorescence ([2]; hydrochloride) | number of high-reactivity proteins [3] | protein labeling, in-gel fluorescence [2]
1 |  |  | C#CCNN.Cl [probe 1, prop-2-yn-1-ylhydrazine hydrochloride] | 20 | 9 | Concentration-dependent protein labeling | ten | 
2 | 20 | 13 | C#CCCNC(=O)c1ccc(NN)cc1.Cl [probe 2, N-(but-3-yn-1-yl)-4-hydrazinylbenzamide hydrochloride] |  |  |  | 33 | Concentration-dependent protein labeling
